Measurements taken from DBAASP.
In brackets after ≈: the same amount, converted by molar mass. Several values for one entry are separate records, joined by “and”; a condition that tells them apart may be missing. Equal entries are not always repeated. Values belong to the compound of their own block, whether it stands above or below them.

Columns and labels:
Assay in all cases: ≥ marks a high value that may be exact or a test limit, other limits are often not marked, values filed in µg/mL are converted to µM
[1] = system: Escherichia coli ATCC 54127
[2] = system: Pseudomonas aeruginosa ATCC 27853
[3] = system: Pseudomonas aeruginosa CIP A22
[4] = system: Staphylococcus aureus ATCC 25923
[5] = system: Escherichia coli ATCC 25922
[6] = system: Candida albicans ATCC 90028
[7] = system: Salmonella enterica subsp. enterica serovar Enteritidis
Escherichia coli = system: Escherichia coli
Micrococcus luteus = system: Micrococcus luteus
[8] = system: Pseudomonas aeruginosa ATCC 9027
Listeria innocua = system: Listeria innocua
[9] = system: Staphylococcus aureus USA 100
[10] = system: Staphylococcus aureus USA 300
[11] = system: Bacillus subtilis VKM B-886
[12] = system: Klebsiella pneumoniae CI 287
Candida krusei IFM 56881 = system: Candida krusei IFM 56881
[13] = system: Cryptococcus neoformans var. grubii H99
[14] = system: Staphylococcus aureus 209P
[15] = system: Candida parapsilosis ATCC 22019
Candida albicans SC5314 = system: Candida albicans SC5314
[16] = system: Pseudomonas aeruginosa PAO1
Escherichia coli ML-35p = system: Escherichia coli ML-35p
[17] = system: Staphylococcus aureus ATCC 29213
[18] = system: Micrococcus luteus VKM B-1314
[19] = system: Enterococcus faecalis ATCC 29212
[20] = system: Staphylococcus epidermidis PIA 8400
Escherichia coli W160-37 = system: Escherichia coli W160-37
[21] = system: Staphylococcus aureus ATCC 8530
Micrococcus luteus MT166 = system: Micrococcus luteus MT166
[22] = system: Pseudomonas putida NCIM 2102
Bacillus subtilis = system: Bacillus subtilis
[23] = system: Saccharomyces cerevisiae ATCC 8530
[24] = system: Escherichia coli BL21(DE3)
Escherichia coli JM109 = system: Escherichia coli JM109
[25] = system: Pseudomonas putida GPp104
Cupriavidus necator H16 = system: Cupriavidus necator H16

MIC [1]: 2.3 µM (≈ 6.39 µg/mL)
MIC [2]: 5 µM (≈ 13.9 µg/mL)
MIC [3]: 2.3 µM (≈ 6.39 µg/mL)
MIC [4]: 1.3 µM (≈ 3.61 µg/mL)
MIC [5]: 2.6 µM (≈ 7.23 µg/mL)
SMILES: CC[C@H](C)[C@H](NC(=O)CNC(=O)[C@H](CCCCN)NC(=O)[C@H](CC(C)C)NC(=O)[C@H](CCSC)NC(=O)[C@H](CC(N)=O)NC(=O)[C@H](CCCCN)NC(=O)[C@H](Cc1c[nH]c2ccccc12)NC(=O)[C@H](CC(C)C)NC(=O)[C@H](C)N)C(=O)NCC(=O)N[C@@H](CCCCN)C(=O)N[C@@H](CC(C)C)C(=O)N[C@@H](C)C(=O)NCC(=O)N[C@@H](CCC(N)=O)C(=O)N[C@@H](C)C(=O)N[C@@H](C)C(=O)N[C@@H](CC(C)C)C(=O)NCC(=O)N[C@@H](C)C(=O)N[C@H](C(=O)N[C@@H](CCCCN)C(=O)N[C@H](C(=O)N[C@@H](CC(C)C)C(=O)N[C@H](C(=O)NCC(=O)N[C@@H](C)C(=O)O)C(C)C)[C@@H](C)O)C(C)C [ALWKNMLKGIGKLAGQAALGAVKTLVGA]

MIC [6]: ≥ 100 µM
MIC [7]: 1 µM (≈ 0.475 µg/mL)
MIC (Escherichia coli): 4 µM (≈ 1.9 µg/mL)
MIC (Micrococcus luteus): 4 µM (≈ 1.9 µg/mL)
MIC [8]: > 100 µM
MIC (Listeria innocua): 1 µM (≈ 0.475 µg/mL)
MIC [9]: ≥ 100 µM
MIC [10]: ≥ 100 µM
SMILES: NC(N)=NCCC[C@H](N)C(=O)N[C@@H](Cc1ccc(O)cc1)C(=O)N[C@@H](Cc1cnc[nH]1)C(=O)O [RYH]

MIC [11]: 1 µM (≈ 2.24 µg/mL)
MIC [12]: 0.5 µM (≈ 1.12 µg/mL)
MIC (Candida krusei IFM 56881): 28.6 µM (≈ 63.9 µg/mL)
MIC [13]: 1.79 µM (≈ 4 µg/mL)
MIC [14]: 0.5 µM (≈ 1.12 µg/mL)
MIC [15]: 7.14 µM (≈ 16 µg/mL)
MIC (Candida albicans SC5314): 14.3 µM (≈ 31.9 µg/mL)
MIC [16]: 0.5 µM (≈ 1.12 µg/mL)
MIC (Escherichia coli ML-35p): 0.062 µM (≈ 0.139 µg/mL)
MIC [17]: 16 µM (≈ 35.8 µg/mL)
MIC [18]: 2 µM (≈ 4.47 µg/mL)
SMILES: CC[C@H](C)[C@@H]1NC(=O)CNC(=O)[C@H](CCCN=C(N)N)NC(=O)[C@H](Cc2ccc(O)cc2)NC(=O)[C@@H]2CSSC[C@H](NC1=O)C(=O)N[C@@H](Cc1ccc(O)cc1)C(=O)N[C@@H](CCCN=C(N)N)C(=O)N[C@@H](CCCCN)C(=O)N[C@H](C(=O)N[C@@H](CCCN=C(N)N)C(=O)O)CSSC[C@H](NC(=O)[C@H](Cc1c[nH]c3ccccc13)NC(=O)[C@@H](N)CCCCN)C(=O)N[C@@H](Cc1ccccc1)C(=O)N[C@@H](CCCN=C(N)N)C(=O)N[C@@H](C(C)C)C(=O)N2 [KWCFRVCYRGICYRKCR]

MIC [19]: 37.5 µM and 74.9 µM
MIC [2]: 18.7 µM and 9.74 µM
MIC [17]: 9.74 µM (≈ 13 µg/mL)
MIC [20]: 4.5 µM and 9.74 µM
MIC [5]: 9.74 µM (≈ 13 µg/mL)
SMILES: CC(C)C[C@H](NC(=O)[C@H](CCCN=C(N)N)NC(=O)[C@@H](N)Cc1ccc(O)cc1)C(=O)N[C@@H](CCCN=C(N)N)C(=O)N[C@H](C(=O)N[C@@H](CCCCN)C(=O)N[C@@H](Cc1c[nH]c2ccccc12)C(=O)N[C@@H](CCCCN)C(=O)N[C@@H](Cc1c[nH]c2ccccc12)C(N)=O)C(C)C [YRLRVKWKW]

MIC (Escherichia coli W160-37): 28.4 µM (≈ 39.9 µg/mL)
MIC [21]: 21.3 µM (≈ 29.9 µg/mL)
MIC (Micrococcus luteus MT166): 21.3 µM (≈ 29.9 µg/mL)
MIC [22]: 28.4 µM (≈ 39.9 µg/mL)
MIC (Bacillus subtilis): 21.3 µM (≈ 29.9 µg/mL)
MIC [23]: ≥ 56.7 µM
SMILES: CC[C@H](C)[C@@H]1NC(=O)[C@@H]2CCCN2C(=O)[C@H](CC(C)C)NC(=O)[C@@H]2CCCN2C(=O)[C@H]([C@@H](C)CC)NC(=O)[C@H](C)NC(=O)[C@H](Cc2ccc(O)cc2)NC(=O)[C@@H](NC(=O)[C@@H](NC(=O)[C@@H](N)CCCN=C(N)N)C(C)C)CSSC[C@@H](C(=O)N[C@@H](Cc2ccc(O)cc2)C(N)=O)NC1=O [RVCYAIPLPICY]

MIC [24]: 1.25 µM (≈ 2.72 µg/mL)
MIC (Escherichia coli JM109): 12.5 µM (≈ 27.2 µg/mL)
MIC [25]: 25 µM (≈ 54.4 µg/mL)
MIC (Cupriavidus necator H16): ≥ 50 µM
SMILES: CC[C@H](C)[C@H](NC(=O)[C@H](Cc1ccc(O)cc1)NC(=O)[C@@H](NC(=O)[C@@H]1CCCN1C(=O)[C@H](CCCN=C(N)N)NC(=O)[C@H](CCCN=C(N)N)NC(=O)[C@@H](NC(=O)[C@@H](N)C(C)C)C(C)C)C(C)C)C(=O)N1CCC[C@H]1C(=O)N[C@@H](CCC(N)=O)C(=O)N1CCC[C@H]1C(=O)N[C@@H](CCCN=C(N)N)C(=O)N1CCC[C@H]1C(=O)N1CCC[C@H]1C(=O)N[C@@H](Cc1cnc[nH]1)C(=O)N1CCC[C@H]1C(=O)N[C@@H](CCCN=C(N)N)C(=O)N[C@@H](CC(C)C)C(=O)O [VVRRPVYIPQPRPPHPRL]
